Like-named read-outs stand apart in the source and are kept apart here. Bridge positions count the residues as written; N and C are the ends. Ends that are not written are not given here.
Experiments:
Kv1.2 = system: Kv1.2; set-up: key to IC50 Kv1.2 (class symbol): -: no or weak activity; settings: cited from earlier work
Excerpt: Table 1 Kunitz-type voltage-gated potassium channel toxins from animal venoms. | column: IC50 (nM) / Kv1.2

Kv1.1 = settings: cited from earlier work
Excerpt: (§1) Kalicludines block Kv1.2 in µM concentratio ...

Kv1.3 = system: Kv1.3; set-up: key to IC50 Kv1.3 (class symbol): -: no or weak activity; settings: cited from earlier work
TNF-α = TNF-α ELISA in blood of mice with carrageenan-induced inflammation; type: in vivo, ICR mice; settings: mouse blood 24 h after carrageenan, indomethacin 5 mg/kg oral
Method: Tests were performed on male ICR mice, with six individuals in each group. A peptide sample was dissolved in sterile saline and administered intravenously at doses of 0.1 and 1.0 mg/kg. Control animals received an equivalent volume of sterile saline. Indomethacin at a dose of 5 mg/kg was used as a positive control and administered orally to animals. Each mouse received 20 μL of a 1% solution of carrageenan in the hind paw pad after 30 min in the case of saline and tested peptide and after 60 min in the case of indomethacin. Then, the resulting edema was measured at several time points (1, 3, 5, and 24 h) using a plethysmometer (Ugo Basile, Gemonio (VA), Italy).
Animals were terminally anaesthetized with sodium pentobarbital ([…] i.p., Euthatal, Merial Animal Health, Essex, UK) 24 h after carrageenan injection. Then the thoracic cavity was opened and blood was collected in tubes with the ethylenediaminetetraacetic acid (EDTA) directly from the right atrium of the heart. The whole blood was centrifuged at 2.5 × 10^3× g for 10 min to remove cells; the blood serum was then aliquoted and stored at −20 °C. These samples were analyzed for TNF-α in the enzyme-linked immunosorbent assay (ELISA) using a diagnostic kit according to the manufacturer’s protocol (CUSABIO BIOTECH Co., Ltd., Houston, TX, USA).

trypsin = settings: cited from earlier work
Shaker IR = system: Shaker IR; set-up: key to IC50 Shaker IR (class symbol): -: no or weak activity; settings: cited from earlier work
Kv1.6 = system: Kv1.6; set-up: key to IC50 Kv1.6 (class symbol): -: no or weak activity; settings: cited from earlier work
Excerpt: Table 1 Kunitz-type voltage-gated potassium channel toxins from animal venoms. | column: IC50 (nM) / Kv1.6

[1] = system: macrophages treated with LPS; settings: ref [68]; cited from earlier work
Excerpt: Kv1.3 channels have gained a prominent role for their possibility to control neuroinflammatory and autoimmune diseases. Inflammation involves several processes including the activation of inflammatory cells, the secretion of pro-inflammatory cytokines and the release of various inflammatory mediators, leading to symptoms of inflammation such as redness, swelling, fever and pain [67].

[2] = system: Kv1.1, Kv1.2, and Kv1.6 channels in rat synaptosomal membranes; settings: ref [18], cited from earlier work; for IC50: 125I α-DTX dendrotoxin binding to synaptosomal membranes
Excerpt: as §1

crabs = settings: ref [18]; cited from earlier work

AsKC1: AsKC1 (Q9TWG0) from A. sulcata (INKDCLLPMDVGRCRASHPRYYYNSSSKRCEKFIYGGCRGNANNFHTLEECEKVCGVR; disulfide 14-38, 30-51, 5-55 (inferred); UniProt Q9TWG0 1-58, looked up)
IC50 (Kv1.2; ref [16]): 2800 nM

LmKTT-1a: LmKTT-1a (P0DJ46) from scorpion Lychas mucronatus
IC50 (Kv1.1; ref [50]): > 1000 nM | IC50 (Kv1.2; ref [50]): > 1000 nM | IC50 (Kv1.3; ref [50]): 1580 ± 73 nM

DTX-I: DTX1 (P00979) from snake Dendroaspis polylepis (QPLRKLCILHRNPGRCYQKIPAFYYNQKKKQCEGFTWSGCGGNSNRFKTIEECRRTCIRK; UniProt P00979 1-60, looked up)
IC50 (Kv1.1; ref [48]): 3.1 nM | IC50 (Kv1.2; ref [48]): 0.13 nM

COc1ccc2c(c1)c(CC(=O)O)c(C)n2C(=O)c1ccc(Cl)cc1 [indomethacin]
effect on TNF-α synthesis (TNF-α): reduced the synthesis of TNF-α

APEKTx1: APEKTx1 (P61541) from the sea anemone A. elegantissima (GTTCYCGKTIGIYWFGTKTCPSNRGYTGSCGYFLGICCYPVD; UniProt P61541 1-42, looked up)
IC50 (Kv1.1; ref [17]): 0.9 nM | Kv1.1 block (in words) (Kv1.1; ref [17]): selectively blocks Kv1.1 channels | trypsin inhibition (in words) (trypsin; ref [17]): effectively inhibiting trypsin | IC50 Shaker IR (class symbol) (Shaker IR; ref [17]): - | IC50 Kv1.2 (class symbol) (Kv1.2; ref [17]): - | IC50 Kv1.6 (class symbol) (Kv1.6; ref [17]): - | IC50 Kv1.3 (class symbol) (Kv1.3; ref [17]): -

AsKC3: AsKC3 (Q9TWF8) from A. sulcata (INGDCELPKVVGRCRARFPRYYYNLSSRRCEKFIYGGCGGNANNFHTLEECEKVCGVRS; disulfide 14-38, 30-51, 5-55 (inferred); UniProt Q9TWF8 1-59, looked up)
IC50 (Kv1.2; ref [16]): 1300 nM

AsKC2: AsKC2 (Q9TWF9) from A. sulcata (INKDCLLPMDVGRCRARHPRYYYNSSSRRCEKFIYGGCRGNANNFITKKECEKVCGVR; disulfide 14-38, 30-51, 5-55 (inferred); UniProt Q9TWF9 1-58, looked up)
IC50 (Kv1.2; ref [16]): 1100 nM

ShPI-1: ShPI-1 (P31713) from S. helianthus (SICSEPKKVGRCKGYFPRFYFDSETGKCTPFIYGGCGGNGNNFETLHQCRAICRA; UniProt P31713 1-55, looked up)
IC50 (Kv1.1; ref [19]): 117 ± 15 nM | IC50 Shaker IR (class symbol) (Shaker IR; ref [19]): - | IC50 (Kv1.2; ref [19]): 9 ± 2 nM | IC50 (Kv1.6; ref [19]): 9 ± 2 nM | IC50 Kv1.3 (class symbol) (Kv1.3; ref [19]): -

DTX-δ: DTX-δ (P00982) from Dendroaspis angusticeps (AAKYCKLPVRYGPCKKKIPSFYYKWKAKQCLPFDYSGCGGNANRFKTIEECRRTCVG; UniProt P00982 1-57, looked up)
IC50 (Kv1.1; ref [49]): 0.01 nM | IC50 (Shaker IR; ref [49]): 1000 nM

B1: bikunin: a human Kunitz-type peptide (protein, UniProt P02760 206-352, looked up)
Inter-alpha-trypsin inhibitor …: AVLPQEEEGSGGGQLVTEVTKKEDSCQLGYSAGPCMGMTSRYFYNGTSMACETFQYGGCMGNGNNFVTEKECLQTCRTVAACNLPIVRGPCRAFIQLWAFDAVKGKCVLFPYGGCQGNGNKFYSEKECREYCGVPGDGDEELLRFSN
modifications: Inter-alpha-trypsin inhibitor light chain
notes: a human Kunitz-type peptide
effect on production of mediators [1]: inhibits the production of thromboxane B2, TNF-α, and IL-8

B2: SHTXIII: SHTXIII (B1B5I8) from S. haddoni (protein, UniProt B1B5I8 20-81, looked up)
KappaPI-stichotoxin-Shd2a: TEEMPALCHLQPDVPKCRGYFPRYYYNPEVGKCEQFIYGGCGGNKNNFVSFEACRATCIIPL
IC50 ([2]; column Kv1.1, read-out: IC50 Kv1.1 (125I α-DTX binding)): 270 nM | IC50 ([2]; column Kv1.2, read-out: IC50 Kv1.2 (125I α-DTX binding)): 270 nM | IC50 ([2]; column Kv1.6, read-out: IC50 Kv1.6 (125I α-DTX binding)): 270 nM | competition with the binding of α-DTX (in words) ([2]; rat synaptosomal membranes, at the level of Kv1.1, Kv1.2, and Kv1.6): competed with the binding of α-DTX | trypsin inhibition (in words) (trypsin; ref [18]): inhibited trypsin | paralysis of crabs (in words) (crabs): paralyzes crabs
